What all share (assay type): functional, cell-based
Assay [1] relates to THP-1. Description: Antiproliferative activity against human THP-1 cells assessed as inhibition of cell growth incubated for 72 hrs by MTT assay. Conditions: THP-1, 72 h. A general note: Formazan colour is commonly taken as a measure of viable cells.
In assay [2] the test system is KG-1. Description: Antiproliferative activity against human KG-1 cells assessed as inhibition of cell growth incubated for 72 hrs by MTT assay. Conditions: KG-1, 72 h.
Assay [3] relates to U-937. Description: Antiproliferative activity against human U-937 cells assessed as inhibition of cell growth incubated for 72 hrs by MTT assay. As to conditions: U-937, 72 h.
For assay [4], the system named is SK-OV-3. Description: Antiproliferative activity against human SK-OV-3 cells assessed as inhibition of cell growth incubated for 72 hrs by MTT assay. Conditions: SK-OV-3, 72 h.
A short description of assay [5]: Antiproliferative activity against human SK-OV-3/Taxol cells assessed as inhibition of cell growth incubated for 72 hrs by MTT assay. Conditions: SK-OV-3, 72 h.

The text below walks through data of ChEMBL document CHEMBL6114992, “Design, synthesis, biological evaluation, and mechanism of action of new pyrazines as anticancer agents in vitro and in vivo” (Bioorg Med Chem, 2025).

Bounds are passed on as bounds.

Consider `CCc1nccnc1C(=O)/C=C/c1ccccc1C`, for which the IC50 in assay [1] came to 4.91 µM; in assay [2] it was 22.9 µM; in assay [3], 3.43 µM; in assay [4], 8.68 µM; in assay [5], 10.8 µM.

On to `Cc1nccnc1C(=O)/C=C/c1ccc(F)cc1`, for which the IC50 amounted to 30.2 µM in assay [1]; 21.7 µM in assay [2]; 26.1 µM in assay [3]; 30.7 µM in assay [4]; 29.2 µM in assay [5].

Turning to `CSc1ccc(/C=C/C(=O)c2nccnc2C)cc1`, the IC50 turned out to be 6.01 µM in assay [1]; 6.84 µM in assay [2]; 3.9 µM in assay [3]; 4.72 µM in assay [4]; 6.8 µM in assay [5].

On to `O=C(/C=C/c1ccccc1Cl)c1cnccn1`, for which the IC50 in assay [1] worked out at 11.8 µM; in assay [2], 8.34 µM; in assay [3] it was 11.4 µM; in assay [4], 7.18 µM; in assay [5] it was 10.2 µM.

Turning to `CCc1nccnc1C(=O)/C=C/c1ccc2c(c1)OC(F)(F)O2`, the IC50 came out at 5.36 µM in assay [1]; 9.09 µM in assay [2]; 5.48 µM in assay [3]; 3.74 µM in assay [4]; 3.72 µM in assay [5].

Regarding `O=C(/C=C/c1ccccc1N1CCOCC1)c1cnccn1`, the IC50 turned out to be 8.39 µM in assay [1]; 2.13 µM in assay [2]; 7.58 µM in assay [3]; 2.43 µM in assay [4]; 3.04 µM in assay [5].

Take `Cc1nccnc1C(=O)/C=C/c1ccccc1Br`: the IC50 in assay [1] was determined as 1.95 µM; in assay [2] it was 2.75 µM; in assay [3] it was 1.23 µM; in assay [4], 3.22 µM; in assay [5], 2.72 µM.

Consider `CC(/C=C/C(=O)c1cnccn1)=C\c1ccccc1`, for which the IC50 was 19.4 µM in assay [1]; 44.5 µM in assay [2]; 22.8 µM in assay [3]; 29.6 µM in assay [4]; 30.6 µM in assay [5].

On to `O=C(/C=C/c1cc2ccccc2o1)c1cnccn1`, for which the IC50 in assay [1] was 13.5 µM; in assay [2], 9.66 µM; in assay [3] it was 10.7 µM; in assay [4], greater than 50 µM; in assay [5], greater than 50 µM.

With `CCc1nccnc1C(=O)/C=C/c1ccc(C(F)(F)F)cc1`, the IC50 in assay [1] worked out at 3.04 µM; in assay [2], 9.21 µM; in assay [3], 5.78 µM; in assay [4], 5.92 µM; in assay [5], 7.29 µM.

On to `Cc1nccnc1C(=O)/C=C/c1ccc(Cl)cc1Cl`, for which the half-inhibitory concentration (IC50) was found to be 9.16 µM in assay [1]; 7.67 µM in assay [2]; 4.66 µM in assay [3]; 6.39 µM in assay [4]; 6.71 µM in assay [5].

As to `CCc1nccnc1C(=O)/C=C/c1ccccc1Br`, the IC50 in assay [1] came to 4.57 µM; in assay [2], 3.58 µM; in assay [3], 1.58 µM; in assay [4] it was 7.93 µM; in assay [5], 8.35 µM.

In the case of `N#Cc1cccc(/C=C/C(=O)c2cnccn2)c1`, the IC50 in assay [1] amounted to 9.69 µM; in assay [2], 5.87 µM; in assay [3] it was 7.41 µM; in assay [4] it was 10.7 µM; in assay [5] it was 13.7 µM.

For `O=C(/C=C/c1ccc(Br)cc1)c1cnccn1`, the IC50 in assay [1] was 23.7 µM; in assay [2], 20.4 µM; in assay [3], greater than 50 µM; in assay [4], greater than 50 µM; in assay [5], greater than 50 µM.

On to `O=C(/C=C/c1ccccc1)c1cnccn1`, for which the IC50 was 15.3 µM in assay [1]; 10.6 µM in assay [2]; 8.05 µM in assay [3]; greater than 50 µM in assay [4]; greater than 50 µM in assay [5].

`Cc1nccnc1C(=O)/C=C/c1ccccc1N1CCOCC1`: the IC50 came out at 11.5 µM in assay [1]; 5.63 µM in assay [2]; 14.3 µM in assay [3]; 2.57 µM in assay [4]; 3.24 µM in assay [5].

With `Cc1ccc(/C=C/C(=O)c2cnccn2)cc1`, the IC50 in assay [1] came to 19.9 µM; in assay [2], 11.4 µM; in assay [3], 23 µM; in assay [4], 10.1 µM; in assay [5] it was 16.6 µM.

As for `N#Cc1ccc(/C=C/C(=O)c2cnccn2)cc1`, the IC50 was 16.2 µM in assay [1]; 15.9 µM in assay [2]; 23.2 µM in assay [3]; 11.2 µM in assay [4]; 12.6 µM in assay [5].

In the case of `CCc1nccnc1C(=O)/C=C/c1ccc(SC)cc1`, the IC50 in assay [1] was 2.67 µM; in assay [2], 9.34 µM; in assay [3] it was 4.29 µM; in assay [4], 7.94 µM; in assay [5], 8.12 µM.

`Cc1nccnc1C(=O)/C=C/c1cccc([N+](=O)[O-])c1`: the IC50 stood at 2.23 µM in assay [1]; 4.76 µM in assay [2]; 2.46 µM in assay [3]; 5.62 µM in assay [4]; 6.38 µM in assay [5].

In the case of `O=C(/C=C/c1ccc2c(c1)OC(F)(F)O2)c1cnccn1`, the IC50 in assay [1] was 20.3 µM; in assay [2] it was 17.3 µM; in assay [3], 14.4 µM; in assay [4], greater than 50 µM; in assay [5], greater than 50 µM.

As for `O=C(/C=C/c1cccc(Cl)c1Cl)c1cnccn1`, the IC50 was 12.2 µM in assay [1]; 54.8 µM in assay [2]; 19 µM in assay [3]; greater than 50 µM in assay [4]; greater than 50 µM in assay [5].

`Cc1nccnc1C(=O)/C=C/c1ccccn1`: the IC50 in assay [1] was determined as 6.22 µM; in assay [2], 5.39 µM; in assay [3] it was 6.55 µM; in assay [4], 10 µM; in assay [5], 11.1 µM.

Regarding `Cc1nccnc1C(=O)/C=C/c1ccc(S(C)(=O)=O)cc1`, the IC50 came out at 1.46 µM in assay [1]; 4.37 µM in assay [2]; 0.76 µM in assay [3]; 3.21 µM in assay [4]; 3.31 µM in assay [5].

In the case of `CCc1nccnc1C(=O)/C=C/C=C/c1ccccc1`, the concentration for half-maximal inhibition (IC50) is 21.6 µM in assay [1]; 19.1 µM in assay [2]; 7.76 µM in assay [3]; 33 µM in assay [4]; 34 µM in assay [5].

As for `COc1ccc(/C=C/C(=O)c2cnccn2)cc1OC`, the IC50 was 6.55 µM in assay [1]; 4.84 µM in assay [2]; 4.79 µM in assay [3]; greater than 50 µM in assay [4]; greater than 50 µM in assay [5].

For `O=C(/C=C/c1cccc(Cl)c1)c1cnccn1`, the IC50 in assay [1] stood at 10.3 µM; in assay [2] it was 9.97 µM; in assay [3], 11.5 µM; in assay [4] it was 10.9 µM; in assay [5], 10.6 µM.

As to `CCc1nccnc1C(=O)/C=C/c1ccc(N(CC)CC)cc1`, the IC50 in assay [1] was 29.5 µM; in assay [2], 24.7 µM; in assay [3], 30.4 µM; in assay [4], greater than 50 µM; in assay [5] it was greater than 50 µM.

In the case of `Cc1nccnc1C(=O)/C=C/c1csc2ccccc12`, the IC50 came to 2.07 µM in assay [1]; 1.54 µM in assay [2]; 1.5 µM in assay [3]; 4.78 µM in assay [4]; 3.28 µM in assay [5].

As to `O=C(/C=C/c1cccs1)c1cnccn1`, the concentration for half-maximal inhibition (IC50) in assay [1] was 10.1 µM; in assay [2], 11.9 µM; in assay [3] it was 6.18 µM; in assay [4], greater than 50 µM; in assay [5], greater than 50 µM.

As for `CCc1nccnc1C(=O)/C=C/c1ccc(Cl)cc1Cl`, the IC50 amounted to 8.28 µM in assay [1]; 5.99 µM in assay [2]; 9.99 µM in assay [3]; 6.99 µM in assay [4]; 6.81 µM in assay [5].

Turning to `CCN(CC)c1ccc(/C=C/C(=O)c2cnccn2)cc1`, the IC50 in assay [1], in assay [2], in assay [3], in assay [4] and in assay [5] was greater than 50 µM throughout.

For `Cc1nccnc1C(=O)/C=C/c1ccc(-c2ccccc2)cc1`, the IC50 is 7.63 µM in assay [1]; 3.25 µM in assay [2]; 2.38 µM in assay [3]; 1.66 µM in assay [4]; 1.67 µM in assay [5].

On to `CCc1nccnc1C(=O)/C=C/c1ccc(S(C)(=O)=O)cc1`, for which the IC50 in assay [1] amounted to 1.38 µM; in assay [2], 3.64 µM; in assay [3] it was 1.94 µM; in assay [4] it was 3.42 µM; in assay [5], 6.19 µM.

As to `Cc1nccnc1C(=O)/C=C/c1ccccc1Cl`, the IC50 in assay [1] was 1.76 µM; in assay [2], 1.26 µM; in assay [3] it was 2.36 µM; in assay [4], 3.08 µM; in assay [5], 2.94 µM.

For `CCc1nccnc1C(=O)/C=C/c1ccccc1F`, the IC50 in assay [1] was determined as 3.52 µM; in assay [2] it was 3.07 µM; in assay [3], 2.23 µM; in assay [4], 3.42 µM; in assay [5] it was 3.67 µM.

Regarding `CCc1nccnc1C(=O)/C=C/c1ccc(OC)cc1`, the IC50 in assay [1] amounted to 6.02 µM; in assay [2], 22.7 µM; in assay [3] it was 5.24 µM; in assay [4], 11 µM; in assay [5] it was 9.88 µM.

In the case of `Cc1nccnc1C(=O)/C=C/c1ccc[nH]1`, the IC50 in assay [1] is 5.72 µM; in assay [2], 7.15 µM; in assay [3], 6.21 µM; in assay [4] it was 4.81 µM; in assay [5], 5.38 µM.

For the compound `CC(/C=C/C(=O)c1nccnc1C)=C\c1ccccc1`, the IC50 in assay [1] was 4.53 µM; in assay [2], 4.78 µM; in assay [3], 2.13 µM; in assay [4], 7.3 µM; in assay [5] it was 6.45 µM.

In the case of `O=C(/C=C/c1ccccc1Br)c1cnccn1`, the half-inhibitory concentration (IC50) in assay [1] came to 15.5 µM; in assay [2], 8.94 µM; in assay [3], 11.6 µM; in assay [4], 12.1 µM; in assay [5], 14.1 µM.

Turning to `CCc1nccnc1C(=O)/C=C/C=C/CCC=C(C)C`, the IC50 is greater than 50 µM in assay [1]; 35.7 µM in assay [2]; 39.7 µM in assay [3]; greater than 50 µM in assay [4]; greater than 50 µM in assay [5].

In general, IC50 refers to the midpoint of a concentration-inhibition curve.
